Where two headings read alike, the source gives them in different places.
How the values were obtained:
c-kit = molecular target: T1, c-kit (Homo sapiens, UniProt P10721); assay: Inhibitory activity against c-kit autophosphorylation (MO7e cells, h-SCF); format: cell-based; settings: for inhibition at 1 µM: Mo7e, at 1000 nM; for IC50: MO7e cells, read-out: c-kit IC50
T1 construct: MO7e (human megakaryocytic leukemia cell line) which had been arrested for 20 hr; endogenous in cells; host or cells: MO7e human megakaryocytic leukemia cell line
T1 sequence (P10721 26-976): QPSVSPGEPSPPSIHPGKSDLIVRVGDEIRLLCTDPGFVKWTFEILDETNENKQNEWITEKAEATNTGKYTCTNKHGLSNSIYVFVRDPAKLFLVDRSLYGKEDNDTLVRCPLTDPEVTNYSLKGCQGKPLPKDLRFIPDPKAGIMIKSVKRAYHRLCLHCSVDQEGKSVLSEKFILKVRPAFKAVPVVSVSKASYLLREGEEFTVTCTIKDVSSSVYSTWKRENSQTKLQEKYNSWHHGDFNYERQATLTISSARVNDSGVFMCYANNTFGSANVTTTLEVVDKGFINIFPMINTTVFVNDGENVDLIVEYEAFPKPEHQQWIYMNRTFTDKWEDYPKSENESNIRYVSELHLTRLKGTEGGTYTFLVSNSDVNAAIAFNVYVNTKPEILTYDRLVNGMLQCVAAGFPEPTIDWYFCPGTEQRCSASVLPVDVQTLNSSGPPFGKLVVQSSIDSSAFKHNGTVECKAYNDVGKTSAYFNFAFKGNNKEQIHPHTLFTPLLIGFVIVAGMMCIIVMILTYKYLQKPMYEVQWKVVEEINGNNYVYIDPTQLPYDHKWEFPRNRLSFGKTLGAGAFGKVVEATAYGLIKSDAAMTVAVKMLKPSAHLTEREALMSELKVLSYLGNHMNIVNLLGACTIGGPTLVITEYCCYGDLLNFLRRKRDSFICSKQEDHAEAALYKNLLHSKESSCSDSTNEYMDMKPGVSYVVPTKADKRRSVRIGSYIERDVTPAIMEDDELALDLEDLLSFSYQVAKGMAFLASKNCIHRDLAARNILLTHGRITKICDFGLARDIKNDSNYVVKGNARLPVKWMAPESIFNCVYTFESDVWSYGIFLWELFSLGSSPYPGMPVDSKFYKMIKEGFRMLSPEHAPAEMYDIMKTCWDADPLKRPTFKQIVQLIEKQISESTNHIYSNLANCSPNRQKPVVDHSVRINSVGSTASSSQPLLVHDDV
Method in brief: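 Ligand-induced c-kit tyrosine phosphorylation is measured in MO7e cells that were quiesced 20 hr and preincubated with compound for 1 hr prior to a 5 min pulse of 50 ng/ml human SCF. Phospho-c-kit is detected by anti-phosphotyrosine capture ELISA, A450.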

PDGF-Ra = molecular target: T2, PDGF-Ra (Homo sapiens, UniProt P16234); assay: Inhibitory activity against PDGF-Ra phosphorylation by PDGF-AA stimulation using G292; format: cell-based; settings: for IC50: > means inhibition at indicated concentration not more than 50%, < and << not less than 50%, read-out: PDGF (E) IC50; for inhibition at 0.1 µM: G292, read-out: PDGF (E) inhibition (%) at 100 nM
T2 construct: host or cells: G-292 human osteosarcoma cells
T2 sequence (P16234 24-1089): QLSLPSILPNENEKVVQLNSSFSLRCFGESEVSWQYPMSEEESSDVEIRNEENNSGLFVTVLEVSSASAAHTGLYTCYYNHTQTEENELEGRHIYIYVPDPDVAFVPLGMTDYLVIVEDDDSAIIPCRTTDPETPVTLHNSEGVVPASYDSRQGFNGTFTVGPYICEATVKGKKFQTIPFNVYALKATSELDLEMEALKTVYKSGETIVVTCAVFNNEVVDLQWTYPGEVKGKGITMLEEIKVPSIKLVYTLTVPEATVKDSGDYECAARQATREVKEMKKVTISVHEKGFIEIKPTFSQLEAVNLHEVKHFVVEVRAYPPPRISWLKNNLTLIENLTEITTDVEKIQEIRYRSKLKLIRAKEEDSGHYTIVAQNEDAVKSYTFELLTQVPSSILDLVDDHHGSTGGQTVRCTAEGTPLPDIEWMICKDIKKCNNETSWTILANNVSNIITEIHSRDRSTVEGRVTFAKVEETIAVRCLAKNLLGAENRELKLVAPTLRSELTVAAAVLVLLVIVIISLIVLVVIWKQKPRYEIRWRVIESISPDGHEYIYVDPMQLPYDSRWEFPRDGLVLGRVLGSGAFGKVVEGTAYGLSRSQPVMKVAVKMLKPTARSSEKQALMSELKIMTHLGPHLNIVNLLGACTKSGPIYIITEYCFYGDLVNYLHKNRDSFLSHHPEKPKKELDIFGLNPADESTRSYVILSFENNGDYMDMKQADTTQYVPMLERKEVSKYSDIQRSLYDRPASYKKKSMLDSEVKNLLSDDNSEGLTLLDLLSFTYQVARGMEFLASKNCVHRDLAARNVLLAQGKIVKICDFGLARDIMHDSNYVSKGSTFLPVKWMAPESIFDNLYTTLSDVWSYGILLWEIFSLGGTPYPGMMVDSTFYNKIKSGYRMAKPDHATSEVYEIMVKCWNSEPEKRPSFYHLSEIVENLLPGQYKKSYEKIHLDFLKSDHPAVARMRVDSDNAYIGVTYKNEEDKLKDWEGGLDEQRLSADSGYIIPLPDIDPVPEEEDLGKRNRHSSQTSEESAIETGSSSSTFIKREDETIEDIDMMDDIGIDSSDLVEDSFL
Method in brief: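 Phospho-PDGF-Ra ELISA: capture with PY-20 antiphosphotyrosine, detection with anti-PDGF-Ra and peroxidase secondary, read at 450 nm. Lysates came from G-292 osteosarcoma cells starved in 0.1% FBS, compound-treated 1 hr at 37° C, and stimulated with 50 ng/ml PDGF-AA for 5 min.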

[1] = figure within parentheses in −( ) or >1000( )
[2] = figure within parentheses in >100( ), at 100 nM

SMILES: CCCc1ccc(C(=O)NC(=S)Nc2ccc(Oc3ccnc4cc(OC)c(OC)cc34)c(Cl)c2)cc1 [Example 1001, N-{3-Chloro-4-[(6,7-dimethoxy-4-quinolyl)oxy]phenyl}-N′-(4-propylbenzoyl)thiourea]
- inhibition at 1 µM (c-kit; figure in parentheses in −( )): 34%
- IC50 (PDGF-Ra): < 0.01 µM

SMILES: COc1cc2nccc(Oc3ccc(OCCCOc4cccc(C)c4)cc3)c2cc1OC [Example 791, 6,7-Dimethoxy-4-{4-[3-(3-methylphenoxy)propoxy]phenoxy}quinoline]
- IC50 (c-kit; 50 ng/ml h-SCF): 0.208 µM
- IC50 (PDGF-Ra): 0.003 µM

SMILES: COc1cc2nccc(Oc3ccc(NC(=O)OCCc4cccc(C(F)(F)F)c4)c(C)c3C)c2cc1OC [Example 83, 3-(Trifluoromethyl)phenethyl N-{4-[(6,7-dimethoxy-4-quinolyl)oxy]-2,3-dimethylphenyl]carbamate]
- IC50 (c-kit; h-SCF 50 ng/ml): 0.253 µM
- IC50 (PDGF-Ra; Pharmacological Test Example 1): 0.016 µM

SMILES: COc1cc2nccc(Oc3ccc(NC(=S)NC(=O)Cc4ccccc4C)cc3Cl)c2cc1OC [Example 702, N-{3-Chloro-4-[(6,7-dimethoxy-4-quinolyl)oxy]phenyl}-N′-[2-(2-methylphenyl)acetyl]thiourea]
- IC50 (c-kit; 50 ng/ml h-SCF): 0.495 µM
- IC50 (PDGF-Ra): < 0.01 µM

SMILES: COc1cc2nccc(Oc3ccc(NC(=S)NC(=O)C4CCCCC4)cc3Cl)c2cc1OC [Example 1179, N-{3-Chloro-4-[(6,7-dimethoxy-4-quinolyl)oxy]phenyl}-N′-cyclohexylcarbonylthiourea]
- IC50 (c-kit; h-SCF stimulation): 0.327 µM
- IC50 (PDGF-Ra): 0.014 µM

SMILES: COc1cc2ncnc(Oc3ccc(NC(=S)NC(=O)CCc4ccccc4C)cc3)c2cc1OC [Example 1133, N-{4-[(6,7-Dimethoxy-4-quinazolinyl)oxy]phenyl}-N′-[3-(2-methylphenyl)propanoyl]thiourea]
- IC50 (c-kit; h-SCF stimulation): 0.042 µM
- IC50 (PDGF-Ra): < 0.01 µM

SMILES: COc1cc2ncnc(Oc3ccc(NC(=S)NCCN4CCOCC4)cc3)c2cc1OC [Example 527, N-{4-[(6,7-Dimethoxy-4-quinazolinyl)oxy]phenyl}-N′-[2-(1-morpholinyl)ethyl]thiourea]
- IC50 (c-kit; 50 ng/ml h-SCF): 0.875 µM
- IC50 (PDGF-Ra): 0.065 µM

SMILES: COc1cc2nccc(Oc3ccc(NCCCOc4ccccc4)c(C)c3C)c2cc1OC [Example 887, N-{4-[(6,7-Dimethoxy-4-quinolyl)oxy]-2,3-dimethylphenyl}-N-(3-phenoxypropyl)amine]
- inhibition at 1 µM (c-kit; figure in parentheses in −( )): 20%
- IC50 (PDGF-Ra): 0.05 µM

SMILES: COc1cc2nccc(Oc3ccc(NC(=O)OCCc4ccccc4)c(C)c3C)c2cc1OC [Example 299, Phenethyl N-{4-[(6,7-dimethoxy-4-quinolyl)oxy]-2,3-dimethylphenyl}carbamate]
- IC50 (c-kit; h-SCF 50 ng/ml): 0.053 µM
- IC50 (PDGF-Ra; Pharmacological Test Example 1): < 0.01 µM

SMILES: COc1cc2nccc(Oc3cc(C)c(NC(=S)NCCN4CCCCC4)cc3C)c2cc1OC [Example 514]
- inhibition at 1 µM (c-kit; [1]): 29%
- IC50 (PDGF-Ra): > 0.1 µM
- inhibition at 0.1 µM (PDGF-Ra; [2]): 31%

SMILES: CCCC(CCN1CCCCC1)OC(=O)Nc1ccc(Oc2ccnc3cc(OC)c(OC)cc23)c(C)c1C (stereo not drawn) [Example 447]
- IC50 (c-kit; 50 ng/ml h-SCF): 0.553 µM
- IC50 (PDGF-Ra): > 0.1 µM
- inhibition at 0.1 µM (PDGF-Ra; [2]): 11%

SMILES: COc1cc2ncnc(Oc3ccc(NC(=S)NC(=O)C4(C)CCCCC4)cc3)c2cc1OC [Example 1193, N-{4-[(6,7-Dimethoxy-4-quinazolinyl)oxy]phenyl}-N′-[(1-methylcyclohexyl)carbonyl]thiourea]
- inhibition at 1 µM (c-kit; figure in parentheses in −( )): 18%
- IC50 (PDGF-Ra): < 0.01 µM

SMILES: COc1cc2ncnc(Oc3ccc(OCCCOc4ccc(F)cc4)cc3)c2cc1OC [Example 808, 4-{4-[3-(4-Fluorophenoxy)propoxy]phenoxy}-6,7-dimethoxyquinazoline]
- IC50 (c-kit; 50 ng/ml h-SCF): 0.061 µM
- IC50 (PDGF-Ra): < 0.01 µM

SMILES: COc1cc2ncnc(Oc3ccc(NC(=O)OCCCOc4ccccc4F)c(C)c3C)c2cc1OC [Example 146, 3-(2-Fluorophenoxy)propyl N-{4-[(6,7-dimethoxy-4-quinazolinyl)oxy]-2,3-dimethylphenyl}carbamate]
- IC50 (c-kit; h-SCF 50 ng/ml): 0.032 µM
- IC50 (PDGF-Ra; Pharmacological Test Example 1): 0.011 µM

SMILES: COc1cc2ncnc(Oc3ccc(NC(=O)OC(C)c4cccc(Cl)c4)cc3)c2cc1OC (stereo not drawn) [Example 6, 1-(3-Chlorophenyl)ethyl N-{4-[(6,7-dimethoxy-4-quinazolinyl)oxy]phenyl}carbamate]
- IC50 (c-kit; h-SCF 50 ng/ml): 0.175 µM
- IC50 (PDGF-Ra; Pharmacological Test Example 1): < 0.01 µM

SMILES: COc1cc2nccc(Oc3ccc(NC(=O)Oc4ccc(C(C)(C)C)cc4)cc3)c2cc1OC [Example 259, 4-(Tert-butyl)phenyl N-{4-[(6,7-dimethoxy-4-quinolyl)oxy]phenyl}carbamate]
- IC50 (c-kit; h-SCF 50 ng/ml): 0.184 µM
- IC50 (PDGF-Ra; Pharmacological Test Example 1): 0.034 µM

SMILES: COc1cc2nccc(Oc3cc(C)c(NC(=O)OCc4cccc(Cl)c4)cc3C)c2cc1OC [Example 242, 3-Chlorobenzyl N-{4-[(6,7-dimethoxy-4-quinolyl)oxy]-2,5-dimethylphenyl}carbamate]
- IC50 (c-kit; h-SCF 50 ng/ml): 0.192 µM
- IC50 (PDGF-Ra; Pharmacological Test Example 1): 0.021 µM

SMILES: COc1cc2ncnc(Oc3ccc(NC(=S)NCCN4CCCC4)cc3)c2cc1OC [Example 530, N-{4-[(6,7-Dimethoxy-4-quinazolinyl)oxy]phenyl}-N′-[2-(1-pyrrolidyl)ethyl]thiourea]
- inhibition at 1 µM (c-kit; [1]): 34%
- IC50 (PDGF-Ra): > 0.1 µM
- inhibition at 0.1 µM (PDGF-Ra; [2]): 45%

SMILES: COc1cc2ncnc(Oc3ccc(NC(=O)OCC4CC4)cc3)c2cc1OC [Example 383, Cyclopropylmethyl N-{4-[(6,7-dimethoxy-4-quinazolinyl)oxy]phenyl}carbamate]
- IC50 (c-kit; h-SCF 50 ng/ml): 0.09 µM
- IC50 (PDGF-Ra; Pharmacological Test Example 1): 0.074 µM

SMILES: COc1cc2nccc(Oc3ccc(NC(=O)OCCSc4cc(C)ccc4C)cc3)c2cc1OC [Example 165, 2-[(2,5-dimethylphenyl)sulfanyl]ethyl N-{4-[(6,7-dimethoxy-4-quinolyl)oxy]phenyl}carbamate]
- IC50 (c-kit; h-SCF 50 ng/ml): 0.149 µM
- IC50 (PDGF-Ra; Pharmacological Test Example 1): 0.049 µM

SMILES: COc1cc(Oc2ncnc3cc(OC)c(OC)cc23)ccc1NC(=O)NCCN1CCCCC1 [Example 680, N-{4-[(6,7-Dimethoxy-4-quinazolinyl)oxy]-2-methoxyphenyl}-N′-(2-piperidinoethyl)urea]
- IC50 (c-kit; 50 ng/ml h-SCF): 0.57 µM
- IC50 (PDGF-Ra): 0.035 µM

SMILES: COc1cc2nccc(Oc3ccc(NC(=O)OC(C)c4cccc(F)c4)cc3)c2cc1OC (stereo not drawn) [Example 97, 1-(3-Fluorophenyl)ethyl N-{4-[(6,7-dimethoxy-4-quinolyl)oxy]phenyl}carbamate]
- IC50 (c-kit; h-SCF 50 ng/ml): 0.254 µM
- IC50 (PDGF-Ra; Pharmacological Test Example 1): < 0.01 µM

SMILES: COc1cc2nccc(Oc3ccc(NC(=S)NCCCN4CCN(C)CC4)c(C)c3C)c2cc1OC [Example 557, N-{4-[(6,7-Dimethoxy-4-quinolyl)oxy]-2,3-dimethylphenyl}-N′-[3-(4-methylpiperazinyl)propyl]thiourea]
- IC50 (c-kit; 50 ng/ml h-SCF): 0.634 µM
- IC50 (PDGF-Ra): > 0.1 µM
- PDGF (E) inhibition (%) at 100 nM (PDGF-Ra; [2]): 33%

SMILES: COc1cc2ncnc(Oc3ccc(NC(=O)NC4CCN(Cc5ccccc5Cl)C4)c([N+](=O)[O-])c3)c2cc1OC (stereo not drawn) [Example 581, N-[1-(2-Chlorobenzyl)tetrahydro-1H-3-pyrrolyl]-N′-{4-[(6,7-dimethoxy-4-quinazolinyl)oxy]-2-nitrophenyl}urea]
- IC50 (c-kit; 50 ng/ml h-SCF): 0.18 µM
- IC50 (PDGF-Ra): 0.014 µM

SMILES: COc1cc2nccc(Oc3ccc(NC(=S)NC(=O)CCC4CCCC4)cc3)c2cc1OC [Example 1131, N-(3-Cyclopentylpropanoyl)-N′-{4-[(6,7-dimethoxy-4-quinolyl)oxy]phenyl}thiourea]
- IC50 (c-kit; h-SCF stimulation): 0.192 µM
- IC50 (PDGF-Ra): 0.051 µM

SMILES: COc1cc2nccc(Oc3ccc(NC(=O)NC4CCN(Cc5ccccc5)CC4)cc3C)c2cc1OC [Example 642, N-(1-Benzyl-4-piperidyl)-N′-{4-[(6,7-dimethoxy-4-quinolyl)oxy]-3-methylphenyl}urea]
- inhibition at 1 µM (c-kit; [1]): 8%
- IC50 (PDGF-Ra): > 0.1 µM
- inhibition at 0.1 µM (PDGF-Ra; [2]): 20%

SMILES: COc1cc2nccc(Oc3ccc(NC(=O)OCCCOc4ccccc4F)cc3)c2cc1OC [Example 142, 3-(2-Fluorophenoxy)propyl N-{4-[(6,7-dimethoxy-4-quinolyl)oxy]phenyl}carbamate]
- IC50 (c-kit; h-SCF 50 ng/ml): < 0.03 µM
- IC50 (PDGF-Ra; Pharmacological Test Example 1): < 0.01 µM

SMILES: CCCC(CCC)OC(=O)Nc1cc(C)c(Oc2ccnc3cc(OC)c(OC)cc23)cc1C [Example 333, 1-Propylbutyl N-{4-[(6,7-dimethoxy-4-quinolyl)oxy]-2,5-dimethylphenyl}carbamate]
- IC50 (c-kit; h-SCF 50 ng/ml): 0.712 µM
- IC50 (PDGF-Ra; Pharmacological Test Example 1): 0.012 µM

SMILES: COc1ccccc1COC(=O)Nc1ccc(Oc2ncnc3cc(OC)c(OC)cc23)cc1Cl [Example 316, 2-Methoxybenzyl N-{2-chloro-4-[(6,7-dimethoxy-4-quinazolinyl)oxy]phenyl}carbamate]
- inhibition at 1 µM (c-kit; figure in parentheses in −( )): 40%
- IC50 (PDGF-Ra; Pharmacological Test Example 1): 0.01 µM

SMILES: COc1cc2nccc(Oc3ccc(NC(=O)OC(C)c4cccc(C(F)(F)F)c4)c(C)c3C)c2cc1OC (stereo not drawn) [Example 88, 1-[3-(Trifluoromethyl)phenyl]ethyl N-{4-[(6,7-dimethoxy-4-quinolyl)oxy]-2,3-dimethylphenyl}carbamate]
- inhibition at 1 µM (c-kit; figure in parentheses in −( )): 45%
- IC50 (PDGF-Ra; Pharmacological Test Example 1): 0.019 µM

SMILES: COc1cc2ncnc(Oc3ccc(NC(=O)OCCN(C)C)cc3)c2cc1OC [Example 191, 2-(Dimethylamino)ethyl N-{4-[(6,7-dimethoxy-4-quinazolinyl)oxy]phenyl}carbamate]
- IC50 (c-kit; h-SCF 50 ng/ml): 0.503 µM
- IC50 (PDGF-Ra; Pharmacological Test Example 1): 0.084 µM

SMILES: COc1cc2nccc(Oc3cc(C)c(NCCOc4c(OC)cccc4OC)cc3C)c2cc1OC [Example 896, N-[2-(2,6-Dimethoxyphenoxy)ethyl]-N-{4-[(6,7-dimethoxy-4-quinolyl)oxy]-2,5-dimethylphenyl}amine]
- inhibition at 1 µM (c-kit; figure in parentheses in −( )): 31%
- IC50 (PDGF-Ra): 0.096 µM
